Consider five molecules from patent US12416036B2, “High-throughput enzyme assay for screening activity of acyltransferases” (CORNELL UNIVERSITY, priority 2021, dated 2025).

SMILES strings stand for the structures. Numbering of substitutions follows the chain as printed. Entries after “also recorded” stand apart in the source; their conditions may differ. Like-named read-outs stand apart in the source and are kept apart here. Residues, ends and D or L forms follow the SMILES beside them. *: point of attachment. 5FAM = O=C1OC2(c3ccc(O)cc3Oc3cc(O)ccc32)c2ccc(C(=O)*)cc21 A value given as a limit tells only on which side of the number the result lay.

In assay [1] the target is T1, ZDHHC3 (Mus musculus, UniProt Q8R173).
T1 construct: FLAG (C); His (C); made in house; host or cells: Sf9 insect cells (baculovirus)
T1 sequence (Q8R173 1-299): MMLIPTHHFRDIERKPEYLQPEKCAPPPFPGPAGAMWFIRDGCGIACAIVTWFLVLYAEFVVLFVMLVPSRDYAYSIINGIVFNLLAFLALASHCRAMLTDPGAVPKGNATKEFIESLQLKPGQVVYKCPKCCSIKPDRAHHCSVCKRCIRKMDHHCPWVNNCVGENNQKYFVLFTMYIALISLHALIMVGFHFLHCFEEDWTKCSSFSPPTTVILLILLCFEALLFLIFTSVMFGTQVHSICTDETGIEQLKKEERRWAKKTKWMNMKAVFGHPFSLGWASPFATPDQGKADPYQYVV
The assay is described as follows: ZDHHC3 Acyl-cLIP assay (end-point method). The class given is biochemical. The following applies: for inhibition of ZDHHC3 compared with ZDHHC7 (Acyl-cLIP): comparison of Acyl-cLIP IC50 values. As to the method:
The DHHC3 IC50 value for 2-BP and MY-D-4 were approximately 250 and 50 μM, respectively (Table 1).
ZDHHC3 was assayed using the similar protocol at a final concentration of 0.6 μM.
The rest of the experiment was done identical to the ZDHHC7 assay.
(§1) Purification of ZDHHC enzymes.

For assay [2], the target named is T2, ZDHHC7 (Mus musculus, UniProt Q91WU6).
T2 sequence (Q91WU6 1-308): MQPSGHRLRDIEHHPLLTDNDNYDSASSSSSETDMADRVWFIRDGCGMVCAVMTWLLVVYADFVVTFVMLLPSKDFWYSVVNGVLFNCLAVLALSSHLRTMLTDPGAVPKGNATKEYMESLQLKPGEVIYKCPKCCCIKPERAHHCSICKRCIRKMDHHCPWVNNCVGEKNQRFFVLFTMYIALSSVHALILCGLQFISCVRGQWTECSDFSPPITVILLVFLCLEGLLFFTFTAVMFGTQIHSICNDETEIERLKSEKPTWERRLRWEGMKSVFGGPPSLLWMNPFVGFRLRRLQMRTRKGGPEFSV
Nature of the assay: ZDHHC7 Acyl-cLIP assay (end-point method).
Method: Because these inhibitors may form irreversible covalent bonds with ZDHHCs, the order of adding the reagents were changed and included a 30-minute pre-incubation time to permit the bond to form prior to the addition of the FAM peptide and palmitoyl-CoA to initiate the reaction.
n-Dodecyl β-D-maltoside (DDM, 1.3 mg) was dissolved in 1 mL of water by vigorous vortexing. Preparing for 19 samples, “Buffer A” was prepared as follows: In a 1.5 mL Eppendorf tube with the DDM solution (190 μL), MES buffer pH 6.5 (stock concentration 500 mM, 38 μL), TCEP (stock concentration 30 mM, 6.33 μL), and ZDHHC7 (stock concentration 6 μM, 19 μL) were added. For the same 19 samples, “Buffer B” was prepared as followed. In a 1.5 mL Eppendorf tube with the DDM solution (76 μL), palmitoyl-CoA (stock concentration 1.5 mM, 12.6 μL) and FAM-Kras4a substrate (stock concentration 0.5 mM, 19 μL) was added. To each well of a black 384 well plate (Corning 3575), 1 μL of inhibitor (concentration ranging from 93.75 μM to 6000 μM) was added. First, 13.3 μL of “Buffer A” was added to each well. After a 30-minute pre-incubation, 5.66 μL of “Buffer B” was added. The final concentration of the reaction mixture was 50 mM MES pH 6.4, 0.5 mM TCEP, 40 μM palmitoyl-CoA, 0.3 μM ZDHHC7, and 25 μM FAM-KRas4a substrate in 0.1% DDM solution. After 30 minutes, the reaction was quenched by adding 4 μL of 6 mM non-FAM KRas-4a substrate. The fluorescence anisotropy was measured by citation 5 with “8040561 Filter BLK ASBY GRN FP VSBL K” cube at excitation of 485/20 nm, emission of 528/20 nm, and normal read speed mode. The measurements were done in 3 replicates at each inhibitor concentration.

For assay [3], the target named is T3, ZDHHC7 (Homo sapiens, UniProt Q9NXF8).
T3 sequence (Q9NXF8 1-308): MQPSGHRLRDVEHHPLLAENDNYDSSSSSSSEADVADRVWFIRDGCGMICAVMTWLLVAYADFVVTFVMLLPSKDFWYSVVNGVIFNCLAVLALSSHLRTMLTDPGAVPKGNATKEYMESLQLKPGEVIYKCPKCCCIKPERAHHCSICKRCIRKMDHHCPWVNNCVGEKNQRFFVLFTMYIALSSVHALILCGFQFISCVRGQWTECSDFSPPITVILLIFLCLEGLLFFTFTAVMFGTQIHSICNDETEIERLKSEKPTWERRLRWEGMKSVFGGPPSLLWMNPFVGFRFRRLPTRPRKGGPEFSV
Nature of the assay: STAT3 fatty acylation induced by ZDHHC7 in HEK293T cells (Alk14 labeling, in-gel fluorescence). To be noted: for STAT3 fatty acylation (ZDHHC7): 50 μM inhibitor, 6-hour treatment; for STAT3 acylation (ZDHHC7): 12- and 24-hour inhibitor treatment; for in-cell inhibition of ZDHHC7 (overall): HEK293T cells, summary statement.
Method: Cells were treated with 50 μM of the inhibitors for the indicated hours and labeled with 50 μM of Alk-14 for 6 hours. […] Cells were treated with 25 μM of inhibitors for 16 hours and labeled with 50 μM of Alk-14 for 6 hours. Relative FL/Protein for both experiments was calculated by dividing fluorescence signal by the protein level from the corresponding “CBB” lane. The fatty acylation level of DMSO with Alk14 was set to 1.
Flag-tagged STAT3 and HA-tagged ZDHHC7 were expressed in HEK293T cells. The cells were incubated with the four inhibitors. During the last six hours of the incubation, 50 μM of Alk14 probe was added to metabolically label palmitoylated STAT3. After collecting and lysing the cells, STAT3 was immunoprecipitated and the levels of acylation were determined by in-gel fluorescence after click chemistry.
HEK 293T cells were transfected with STAT3-Flag and ZDHHC3-HA or ZDHHC7-HA for 36 h, and treated with 50 μM 2-BP, MY-D-2, MY-D-3, or MY-D-4 for the indicated time with 6 h Alk14 labeling (50 μM). Cells were collected and lysed in the 1% NP-40 lysis buffer (25 mM Tris-HCl pH 8.0, 10% glycerol, 150 mM NaCl, 1% Nonidet P-40) with protease inhibitor cocktail (P8340, Sigma). STAT3-Flag was purified by anti-Flag agarose beads and resuspended in 50 μL IP wash buffer (25 mM Tris-HCl pH 8.0, 150 mM NaCl, 0.2% Nonidet P-40). Click chemistry was done by adding a mixture of 3 μL of 2 mM TAMRA azide (47130, Lumiprobe), 3.6 μL of 10 mM tris[(1-benzyl-1H-1,2,3-triazol-4-yl)methyl]amine (TBTA) (T2993, TCI chemicals), 3 μL of 40 mM CuSO4, 3 μL of 40 mM tris(2-carboxyethyl)phosphine HCl (TCEP hydrochloride) (580560, Millipore) to each sample. The mixtures were mixed by vortex and incubated in dark at room temperature for 30 min. 20 μL of the 6× loading buffer was added into each reaction mixture and the mixture was boiled at 95° C. for 10 min to denature. The mixture was separated by SDS-PAGE gel. The gel was scanned by the Typhoon 7000 Variable Mode Imager (GE Healthcare Life Sciences) in the rhodamine channel to visualize the fatty acylation of STAT3 and was stained with Coomassie Brilliant Blue (B7920, Sigma) to check for protein loading. Relative FL/Protein quantification was done by ImageJ.

The target of assay [4] is T2, ZDHHC7. The assay is described as follows: ZDHHC7-myrGia PAT assay with [3H]palmitoyl-CoA. The class given is biochemical. Also on record: myc (vector pblueBac4.5-myc3His10) (C); His (vector pblueBac4.5-myc3His10) (C); made in house; host or cells: Sf9 insect cells (baculovirus). To be noted: [3H]palmitoyl-CoA and myr-Gia substrate; 10 min pre-incubation at 30° C. As to the method:
To further evaluate the potency of the inhibitors, the four compounds were tested using ZDHHC7-catalyzed palmitoylation of myristoylated (myr) Gi protein a subunit (Gia) using an established in vitro assay with [^3H]palmitoyl-CoA. Myr-Gia was previously reported as a substrate for ZDHHC7 (R. Tsutsumi et al., Mol. Cell. Biol., 29, 435-447, 2009). ZDHHC7 and the inhibitors were pre-incubated at 30° C. for 10 min, followed by the addition of [^3H]pal-mitoyl-CoA and myr-Gia. The acylation reaction was allowed to proceed at 30° C. for 10 min, the reaction was quenched, and the proteins resolved by SDS-PAGE. The [^3H]-palmitoylated myrGia band was excised from the gel and the level of [^3H]palmitoylation was measured by scintillation counting. […] Additionally, MY-D-2 and MY-D-3 inhibited ZDHHC7 weaker than 2-BP.
as §1
ZDHHC7-myrGia PAT Assay. Rat Myr-Gia was generated by transforming C-terminally His-tagged Gia in JM101 competent cells containing the N-myristoyltransferase (NMT) plasmid. Following inoculation and induction of the bacterial cells, myr-Gia was purified from total cell lysates using Ni-NTA resin. […] The PAT reaction was then initiated by mixing the enzyme:inhibitor solution with [^3H]-palmitoyl CoA (1 μM) and myr-Gia (1 μM). The reaction was allowed to proceed for 10 min at 30° C. and then stopped with the addition of sample buffer containing 10 mM TCEP. Proteins were resolved on a Coomassie-stained gel, and the myr-Gia band was excised and dissolved in Soluene (Perkin-Elmer). The excised bands were heated at 37° C. overnight and then combined with Ultima Gold scintillation fluid (Perkin-Elmer). Radioactivity was measured by scintillation counting. IC50 values for the inhibitors were calculated by plotting the inhibition curves in GraphPad Prism.

The target in assay [5] is T2, ZDHHC7. The assay is described as follows: Enzyme kinetics of ZDHHC7 on the FAM-KRas4a peptide by HPLC. Format: biochemical. Set-up: myc (vector pblueBac4.5-myc3His10) (C); His (vector pblueBac4.5-myc3His10) (C); made in house; host or cells: Sf9 insect cells (baculovirus). The following applies: ZDHHC7, 60 μM palmitoyl-CoA.
Method: ZDHHC-catalyzed S-palmitoylation was detected by LC-MS. To facilitate detection by UV, two tryptophan residues were added to the C-terminus of the peptide. In a second peptide, the 5-FAM group was attached to permit detection in the acyl-cLIP assay.
In solutions containing 0.1% DMM, 50 mM MES pH 6.4, 0.5 mM TCEP, 60 μM palmitoyl-CoA, and 0.15 μM DHHC7, FAM-KRas peptide was added to final concentration ranging from 31.25 μM to 2000 μM. After 10 minutes of incubation, the reaction was quenched with 0.1% acetonitrile. After centrifuging at 17 000 g for 10 minutes, the supernatant was loaded to Shimadzu HPLC LC20 Ad with Kinetex 5u EVO C18 100 Å column (100 mm×4.60 mm, 5 μm) for UV detection at 260 nm. Using HPLC-grade water with 0.1% trifluoroacetic acid as Buffer A and HPLC-grade acetonitrile with 0.1% trifluoroacetic acid, at a constant rate of 0.5 mL/min, the linear gradient for elution was 0% Buffer B (0-2 min), 20% Buffer B (2-4 min), 40% Buffer B (4-17 min), 100% Buffer B (17-19 min), 100% Buffer B (19-24 min), 0% Buffer B (24-25 min), and 0% Buffer B (25-30 min). Product formed was quantified using the ratio of substrate and product peak areas. After the detection, Km and kcat values were measured by GraphPad Prism software.
In assay [6] the target is T4, ZDHHC3 (Homo sapiens, UniProt Q9NYG2).
T4 construct: HA; expressed in transfected cells; host or cells: HEK 293T cells
T4 sequence (Q9NYG2 1-299): T1 sequence (Q8R173 1-299) with D11N, A25V, F29Y, A33V, A35T, V68I, A74V, A224G
The assay is described as follows: STAT3 fatty acylation induced by ZDHHC3 in HEK293T cells (Alk14 labeling, in-gel fluorescence). The following applies: for effect on ZDHHC3-catalyzed STAT3 acylation level: 25 μM, 6-hour treatment. The class given is cell-based. An excerpt:
Next experiments also tested the four compounds for ZDHHC3 inhibition in HEK293T cells that over-express both ZDHHC3 and STAT3. […] Thus, the results from the Acyl-cLIP assay can be used to predict cellular responses.

For assay [7], the target named is T1, ZDHHC3. Nature of the assay: ZDHHC-HRas PAT assay, ZDHHC3. The class given is biochemical. The following applies: fixed inhibitor concentration of 1 μM; order MY-D-4, 2-BP, MY-D-2, MY-D-3. As to the method: (§2) The results of the Acyl-cLIP assay were also compared with a conventional assay using HRas protein. Next experiments screened at a fixed inhibitor concentration of 1 μM against ZDHHC3 and ZDHHC7 using [^3H]palmitoyl-CoA and HRas protein as substrates. The levels of [^3H]palmitoylated HRas were detected.
as §1
(§3) ZDHHC-HRas PAT Assay. His-HRas was purified from total cell lysates of baculovirus-infected Sf9 cells using Ni-NTA resin.

In assay [8] the target is T2, ZDHHC7. The assay is described as follows: ZDHHC-HRas PAT assay, ZDHHC7. Format: biochemical. Set-up: myc (vector pblueBac4.5-myc3His10) (C); His (vector pblueBac4.5-myc3His10) (C); made in house; host or cells: Sf9 insect cells (baculovirus). The following applies: fixed inhibitor concentration of 1 μM; order MY-D-4, 2-BP, MY-D-2, MY-D-3. How it is done: as §2, §1, §3

The mark [9] stands for this setting: 30-minute pre-incubation, FAM-KRas4a peptide substrate.
Setting [10] is: IC50 (μM) ZDHHC7 (Acyl-cLIP), 30-minute pre-incubation with inhibitor, FAM-KRas4a peptide substrate.
Where [11] appears, read: IC50 ZDHHC7 (Acyl-cLIP) without the pre-incubation, without pre-incubation.

As for `CCCCCCCCCCCCCCC(Br)C(=O)O` (centres unmarked) [2-BP, 2-bromopalmitate, reference compound], the IC50 at ZDHHC3 [1] (setting [9]) is greater than 250 µM; on ZDHHC7 [2] (read-out: IC50 (μM) ZDHHC7 (Acyl-cLIP), 30-minute pre-incubation with inhibitor, FAM-KRas4a peptide substrate) it was 9 µM; on ZDHHC7 [2] (read-out: IC50 ZDHHC7 (Acyl-cLIP) without the pre-incubation, without pre-incubation), 12 µM; at ZDHHC7 [4], 16 µM. Besides, the “inhibition of ZDHHC3 compared with ZDHHC7 (Acyl-cLIP)” value against ZDHHC3 [1] was “inhibited ZDHHC3 much less than ZDHHC7”. The “time-dependent inhibition of STAT3 acylation (ZDHHC7)” value at ZDHHC7 [3] (25 μM inhibitor, HEK293T) is listed as “slightly more inhibitory effect than MY-D-4”. The “STAT3 fatty acylation (ZDHHC7)” value at ZDHHC7 [3] (HEK293T) is “abolished”. Further, the “STAT3 acylation (ZDHHC7)” value on ZDHHC7 [3] (HEK293T) is “completely eliminated”.
For the molecule `CC[C@H](C)[C@H](NC(=O)c1ccc2c(c1)C(=O)OC21c2ccc(O)cc2Oc2cc(O)ccc21)C(=O)N[C@@H](CO)C(=O)N[C@@H](CCCCN)C(=O)N[C@@H](CCC(=O)O)C(=O)N[C@@H](CCC(=O)O)C(=O)N[C@@H](CCCCN)C(=O)N[C@H](C(=O)N1CCC[C@H]1C(=O)NCC(=O)N[C@@H](CS)C(=O)N[C@H](C(=O)N[C@@H](CCCCN)C(=O)N[C@H](C(=O)N[C@@H](CCCCN)C(=O)N[C@@H](CCCCN)C(=O)O)[C@@H](C)CC)C(C)C)[C@@H](C)O` [FAM-KRas4a peptide] (5FAM-ISKEEKTPGCVKIKK-OH), the Km at ZDHHC7 [5] was found to be 184 µM.
For the molecule `CCCCCCCCCCCCCCC(Br)C(=O)OC` [MY-D-2, methyl 2-bromohexadecanoate], the “IC50 (μM) ZDHHC3 (Acyl-cLIP)” value against ZDHHC3 [1] (setting [9]) was “No”. Further, the “effect on ZDHHC3-catalyzed STAT3 acylation level” value at ZDHHC3 [6] was “only slightly affected”. Moreover, the values for the IC50 at ZDHHC7 [2] (setting [10]), against ZDHHC7 [2] (setting [11]) and at ZDHHC7 [4] were 38 µM, 75 µM and 29 µM, respectively. Further, on ZDHHC7 [3] (HEK293T), the “STAT3 fatty acylation (ZDHHC7)” value is given as “only slightly decreased”. The “in-cell inhibition of ZDHHC7 (overall)” value at ZDHHC7 [3] is given as “only mild inhibition”.
Regarding `CCCCCCCCCCCCCCC(Br)C(=O)Nc1ccccc1` [MY-D-3, 2-bromo-N-phenylhexadecanamide], the “IC50 (μM) ZDHHC3 (Acyl-cLIP)” value against ZDHHC3 [1] (setting [9]) is “No”. The “effect on ZDHHC3-catalyzed STAT3 acylation level” value at ZDHHC3 [6] is listed as “did not alter”. Moreover, the values for the half-maximal inhibitory concentration (IC50) at ZDHHC7 [2] (setting [10]) and against ZDHHC7 [4] were greater than 150 µM and 78 µM, respectively. The “inhibition of ZDHHC7 (Acyl-cLIP) at highest concentration” value against ZDHHC7 [2] (at 150 μM) is given as “no inhibition”. The “STAT3 fatty acylation (ZDHHC7)” value at ZDHHC7 [3] (HEK293T) is “had no effect”. For the same molecule, on ZDHHC7 [3], the “in-cell inhibition of ZDHHC7 (overall)” value is listed as “no inhibition”.
Turning to `CCCCCCCCCCCCCCC(Br)C(=O)SCCNC(C)=O` [MY-D-4, S-(2-acetamidoethyl) 2-bromohexadecanethioate], the IC50 on ZDHHC3 [1] is roughly 50 µM; at ZDHHC7 [2] (setting [10]), 4.4 µM; at ZDHHC7 [2] (setting [11]) it was 6.3 µM; at ZDHHC7 [3], 1 to 5 µM; on ZDHHC7 [4], 1.6 µM. Also, on ZDHHC3 [1], the “inhibition of ZDHHC3 compared with ZDHHC7 (Acyl-cLIP)” value was “inhibited ZDHHC3 much less than ZDHHC7”. In addition, on ZDHHC3 [7], the “inhibition of ZDHHC3, levels of [3H]palmitoylated HRas” value is “strongest inhibition among the four compounds”. Besides, at ZDHHC3 [6] (25 μM of inhibitors for 16 hours), the “inhibition of ZDHHC3 in living cells (FIG. 4B)” value is recorded as “inhibits”. For the same molecule, the “STAT3 fatty acylation (ZDHHC7)” value on ZDHHC7 [3] (HEK293T) is “significantly reduced”. In addition, the “STAT3 acylation (ZDHHC7)” value on ZDHHC7 [3] (HEK293T) is reported as “completely eliminated”. Also, at ZDHHC7 [3], the “in-cell inhibition of ZDHHC7 (overall)” value is “slightly weaker than or similar potency to 2-BP; also recorded: inhibits”. For the same molecule, on ZDHHC7 [8], the “inhibition of ZDHHC7, levels of [3H]palmitoylated HRas” value is listed as “strongest inhibition among the four compounds”.
